Assay results as given in patent US4921984A, “Novel platinum complexes” (Nippon Kayaku Kabushiki Kaisha, priority 1985, dated 1990).

Assays:
mouse leukemia L1210 = test: Antitumor activity test on mouse leukemia L1210 in vivo; settings: for max (T/C): L1210, average survival time treated/control ×100, i.p. once a day for 5 days; for Opt. dose: L1210, dose giving max (T/C); for Opt. dose / LD50: i.p. once a day for 5 days; for LD50: L1210-bearing CDF1 mice
Description: Mice of compound-non-treated group (control group) were administered with physiological saline solution in the same manner. The average survival times of the compound-treated group and the control group (abbreviated as T and C, respectively) were measured and T/C percentage (T/C×100) was calculated from the following equation. [formula]
In Table 4, max (T/C) means the maximum value of T/C and optimum dose (opt. dose) means an administration amount giving the max namely, an optimum administration amount.

[1] = tested on: mouse leukemia L1210 cells; test: Growth inhibition test on cultured mouse leukemia L1210 cells; type: cell-based; settings: RPMI 1640 with 10% fetal calf serum
Description: Mouse leukemia L1210 cells were cultured in a RPMI 1640 medium containing 10% of fetal calf serum.

| SMILES | Solubility in physiological saline solution | max (T/C) (mouse leukemia L1210) | Opt. dose (mouse leukemia L1210) | LD50 (mouse leukemia L1210) | IC50 [1] | Solubility in water |
| --- | --- | --- | --- | --- | --- | --- |
| [Cl][Pt-2]1([Cl])[NH2+]CCCC[NH2+]1 [Compound No. 1, cis-Dichloro-1,4-butanediamine platinum] | > 2 mg/ml | 203% | 2 mg/kg | 4.8 mg/kg | 0.33 µg/mL | – |
| O=C1[O][Pt-2]2([NH2+]CCCC[NH2+]2)[O]C(=O)C12CCOCC2 [Compound No. 3, cis-4-Oxacyclohexane-1,1-dicarboxylato-1,4-butanediamine platinum] | – | 132% | 8 mg/kg | 8.4 mg/kg | 0.65 µg/mL | > 10000 µg/mL |
| CCC(N)CCCN.O=C([O-])C1(C(=O)[O-])CCC1.[Pt+2] [Compound No. 11, cis-Cyclobutane-1,1-dicarboxylato-1-ethyl-1,4-butanediamine platinum] | – | 139% | 64 mg/kg | – | 4.70 µg/mL | > 3000 µg/mL |
| CC1(C)CC[NH2+][Pt-2]([Cl])([Cl])[NH2+]C1 [Compound No. 19, cis-Dichloro-2,2-dimethyl-1,4-butanediamine platinum] | > 2 mg/ml | 359% | 4 mg/kg | 6.0 mg/kg | 0.20 µg/mL | – |
| CC(C)(CN)CCN.O=C([O-])C1(C(=O)[O-])CCC1.[Pt+2] [Compound No. 22, cis-Cyclobutane-1,1-dicarboxylato-2,2-dimethyl-1,4-butanediamine platinum] | – | 320% | 128 mg/kg | – | 2.20 µg/mL | > 3000 µg/mL |
| CC1(C)CC[NH2+][Pt-2]2([NH2+]C1)[O]C(=O)C1(CCOCC1)C(=O)[O]2 [Compound No. 23, cis-4-Oxacyclohexane-1,1-dicarboxylato-2,2-dimethyl-1,4-butanediamine platinum] | – | 159% | 32 mg/kg | – | 0.44 µg/mL | > 3000 µg/mL |
| CC1(C)CCC[NH2+][Pt-2]([Cl])([Cl])[NH2+]1 [Compound No. 25, cis-Dichloro-1,1-dimethyl-1,4-butanediamine platinum] | > 2 mg/ml | 150% | 2 mg/kg | 3.0 mg/kg | 0.25 µg/mL | – |
